Experimental data published in ChEMBL document CHEMBL1129022, “Synthesis and antibacterial activity of new tropone-substituted phenyloxazolidinone antibacterial agents 2. Modification of the phenyl ring the potentiating effect of fluorine substitution on in vivo activity” (1996).
In brackets after ≈: the same amount, converted by molar mass.

What was measured:
Type in all cases: functional
[1] = test system: Streptococcus pneumoniae; test: Compound was tested in vitro for antibacterial activity against Streptococcus pneumoniae UC 9912.
[2] = test system: Staphylococcus aureus; test: Compound was tested in vitro for antibacterial activity against methicillin-susceptible Staphylococcus aureus UC 9213.
[3] = test system: Escherichia coli; test: Compound was tested in vitro for antibacterial activity against Escherichia coli extracts, using cell free prokaryotic transcription coupled translation (T/T) assay.; details: dose or concentration not given here
[4] = test system: Mus musculus; test: Amount of drug required (mg/kg body weight/dose) to cure 50% of infected mice subjected to a lethal systemic infection with Staphylococcus aureus UC 9213
[5] = test system: Enterococcus faecalis; test: Compound was tested in vitro for antibacterial activity against Enterococcus faecalis UC 9217.
[6] = test system: Staphylococcus epidermidis; test: Compound was tested in vitro for antibacterial activity against methicillin-resistant Staphylococcus epidermidis UC 12084.
[7] = test system: Bacteroides fragilis; test: Compound was tested in vitro for antibacterial activity against Bacteroides fragilis UC 12199.
[8] = test system: Staphylococcus aureus; test: Compound was tested in vitro for antibacterial activity against methicillin-resistant Staphylococcus aureus UC 6685
[9] = test system: Escherichia coli; test: Compound was tested in vitro for antibacterial activity against Escherichia coli extracts, using cell free prokaryotic transcription coupled translation (T/T) assay at 2 ug/mL
[10] = test system: Mycobacterium tuberculosis; test: Compound was tested in vitro for antibacterial activity against Mycobacterium tuberculosis H37Rv.

| Structure (SMILES) | MIC [1] [µg/mL] | MIC [2] [µg/mL] | inhibition [3] [%] | ED50 [4] [mg/kg] | MIC [5] [µg/mL] | MIC [6] [µg/mL] | MIC [7] [µg/mL] | MIC [8] [µg/mL] | inhibition [9] [%] | MIC [10] [µg/mL] |
| --- | --- | --- | --- | --- | --- | --- | --- | --- | --- | --- |
| COc1ccc(-c2c(F)cc(N3CC(CNC(C)=O)OC3=O)cc2F)ccc1=O (centres undefined) | 0.5 (≈ 1.24 µM) | 2 (≈ 4.95 µM) | 85 | 3.7 | 1 (≈ 2.47 µM) | 0.5 (≈ 1.24 µM) | – | – | – | – |
| C#CCNc1ccc(-c2ccc(N3C[C@H](CNC(C)=O)OC3=O)cc2F)ccc1=O | 0.125 (≈ 0.305 µM) | 1 (≈ 2.44 µM) | – | 1.3 | 0.5 (≈ 1.22 µM) | 0.25 (≈ 0.611 µM) | 2 (≈ 4.88 µM) | 0.5 (≈ 1.22 µM) | – | – |
| CN[C@H](CC(C)C)C(=O)N[C@H]1C(=O)N[C@@H](CC(N)=O)C(=O)N[C@H]2C(=O)N[C@H]3C(=O)N[C@H](C(=O)N[C@H](C(=O)O)c4cc(O)cc(O)c4-c4cc3ccc4O)[C@H](O)c3ccc(c(Cl)c3)Oc3cc2cc(c3O[C@@H]2O[C@H](CO)[C@@H](O)[C@H](O)[C@H]2O[C@H]2C[C@](C)(N)[C@H](O)[C@H](C)O2)Oc2ccc(cc2Cl)[C@H]1O [VANCOMYCIN] | 0.5 (≈ 0.345 µM) | – | – | 2.2 | – | – | – | – | – | – |
| COc1ccc(-c2ccc(N3CC(CNC(C)=O)OC3=O)cc2)ccc1=O (centres undefined) | 0.25 (≈ 0.679 µM) | 2 (≈ 5.43 µM) | – | 12.2 | 1 (≈ 2.71 µM) | 0.5 (≈ 1.36 µM) | – | – | 89 | – |
| COc1ccc(-c2ccc(N3CC(CNC(C)=O)OC3=O)cc2F)ccc1=O (centres undefined) | 0.25 (≈ 0.647 µM) | 1 (≈ 2.59 µM) | – | 7.7 | 1 (≈ 2.59 µM) | 0.5 (≈ 1.29 µM) | – | – | – | – |
| COc1ccc(-c2ccc(N3C[C@H](CNC(C)=O)OC3=O)cc2F)ccc1=O | 0.125 (≈ 0.324 µM) | 1 (≈ 2.59 µM) | – | 4.1 | 0.5 (≈ 1.29 µM) | 0.25 (≈ 0.647 µM) | 8 (≈ 20.7 µM) | 0.5 (≈ 1.29 µM) | – | < 1 |
| COc1ccc(-c2c(F)cc(N3C[C@H](CNC(C)=O)OC3=O)cc2F)ccc1=O | 0.25 (≈ 0.618 µM) | 1 (≈ 2.47 µM) | – | 2.3 | 1 (≈ 2.47 µM) | 0.5 (≈ 1.24 µM) | 8 (≈ 19.8 µM) | 0.5 (≈ 1.24 µM) | – | – |
| C/N=c1\ccc(-c2ccc(N3C[C@H](CNC(C)=O)OC3=O)cc2F)ccc1O | 0.125 (≈ 0.324 µM) | 0.5 (≈ 1.3 µM) | – | – | 0.25 (≈ 0.649 µM) | 0.125 (≈ 0.324 µM) | 2 (≈ 5.19 µM) | 0.25 (≈ 0.649 µM) | – | – |
| COc1ccc(-c2ccc(N3CC(CNC(C)=O)OC3=O)cc2C(F)(F)F)ccc1=O (centres undefined) | 4 (≈ 9.17 µM) | 32 (≈ 73.3 µM) | – | > 20 | 16 (≈ 36.7 µM) | 4 (≈ 9.17 µM) | – | – | 58 | – |
| COc1ccc(-c2ccc(N3CC(CNC(C)=O)OC3=O)cc2Cl)ccc1=O (centres undefined) | 1 (≈ 2.48 µM) | 4 (≈ 9.93 µM) | – | > 20 | 2 (≈ 4.96 µM) | 1 (≈ 2.48 µM) | – | – | 71 | – |
